Patent publication US6340783B1, “Rodent models of human amyloidoses” (University of Washington, priority 1992, dated 2002)
Read-outs that look alike come from different tables or passages of the source.

How the values were obtained:
[1] = biological target: T1, Beta-Amyloid Protein (1-28) (Homo sapiens, UniProt P05067); assay: Competitive inhibition of 125I-labeled HSPG binding to BAP (1-28) affinity column; details: for IC50: unlabeled competing ligand, BAP (1-28) affinity column, read-out: concentration at 50% inhibition of 125I-HSPG binding to BAP
T1 construct: residues 1-28 of BAP or residues 597-624 of BAPP; purchased Bachem Inc., Torrance, Calif; host or cells: synthetic peptide
Protocol: ^125I-labeled HSPGs in the presence of increasing concentrations of unlabeled GAGs, or large low density HSPG (from EHS sarcoma) were applied to an Affi-gel 10 column containing BAP (residues 1-28). After nonbound PGs were eluted from the column using TBS+0.1% TX-100, bound PGs were eluted with a step gradient using 15 ml of 1M MgCl2 in TBS+0.1% TX-100, followed by 15 ml of 4M MgCl2 in TBS+0.1% TX-100, and then 10 ml of 8M urea buffer containing 3M NaCl. […] Bars indicate standard error of the mean.
In order to test the specificity of HSPG binding to BAP (1-28), competitive inhibition experiments were also performed. 125-I labeled HSPGs (100,000-200,000 dpm) were mixed with (a) HSPG from EHS sarcoma (Mr approximately 700,000) (Kato et al., 1988) (gift of Dr. Koji Kimata, Aichi, Japan), (b) heparin from porcine intestinal mucosa (Mr˜11,000; Sigma, St. Louis, Mo.), (c) chondroitin-6-sulfate from shark cartilage (Mr˜59,000; Sigma, St. Louis, Mo.), or (d) […] dextran sulfate (Mr˜110,000; Pharmacia Fine Chemicals, Uppsala, Sweden). The samples were incubated on a rotator for 2 hours at room temperature and then applied to the BAP (1-28) column. Columns were run and eluted with step gradients (1 to 4 M MgCl2) as described above.
Purified iodinated HSPGs were combined with various concentrations of unlabeled competing ligands and applied to a BAP (1-28) affinity column (FIG. 10).

[2] = biological target: T2, BAPP-751 (Homo sapiens, UniProt P05067); details: single binding site; cited from earlier work
T2 construct: host or cells: baculovirus-derived

[3] = biological target: basic fibroblast growth factor (Homo sapiens, UniProt P09038); details: mediated by heparan sulfate GAG chains; cited from earlier work
[4] = biological target: T3, BAPP-770 (Homo sapiens, UniProt P05067); details: single binding site; cited from earlier work
T3 construct: host or cells: baculovirus-derived

[5] = biological target: T4, BAPP-695 (Homo sapiens, UniProt P05067); details: single binding site; cited from earlier work
T4 construct: host or cells: baculovirus-derived

[6] = test system: β/A4 amyloid deposition in rat hippocampus; assay: Rat infusion model of β/A4 amyloid deposition in hippocampus; assay type: in vivo
Protocol: For infusion studies, all reagents were dissolved and stored at 4° C. the night prior to surgery. β/A4 (residues 1-40; Bachem California Inc., Torrance, Calif.; Lot #ZJ209) was initially dissolved at 10 mg/ml in 35% acetonitrile (stock solution), with the final diluted concentration of acetonitrile less than 3% in animals infused with β/A4 or its vehicle (see below). Perlecan (basement membrane derived HSPG) and heparan sulfate (HS) GAGs were isolated and purified from the mouse Engelbreth-Holm-Swarm (EHS) sarcoma as described (6), and dissolved in sterile saline at 5 mg/ml and 10 mg/ml, respectively. Male Sprague-Dawley rats (250-300 gms; 3 months old; Harlan Sprague Dawley) were implanted with Alzet 2002 minipumps delivering the following solutions directly into hippocampus at a flow rate of 0.5 μl per hour for one week (7); 1) β/A4 (7.5 μl stock) & HSPG (92.5 μl stock), 6 animals; 2) β/A4 (7.5 μl stock) & HS GAGs (92.5 μl stock), 4 animals; 3) β/A4 (7.5 μl stock) & saline (92.5 μl), 6 animals; 4) HSPG only (100 μl), 4 animals; 5) HS GAGs only (100 μl), 4 animals; 6) saline only (100 μl), 4 animals; and 7) 35% acetonitrile (β/A4 vehicle, 7.5 μl) & saline (92.5 μl), 2 animals. High concentrations of these reagents were chosen to maximize possible effects following infusion into brain. The approximate quantity of β/A4 peptide infused into brain by the end of 1 week in each animal having β/A4 (1-40) as part of the infusate was 75 μg, at least 5 times the amount previously reported in rat models employing single acute injections (8, 9). After one week of continuous infusion, rats were sacrificed by overdose with pentobarbital and perfused with 100 ml of saline followed by 150 ml of 4% paraformaldehyde buffered with phosphate (pH 7.4), postfixed for 24 hours and transferred to phosphate buffered saline for paraffin embedding. Once embedded, consecutive 6 μm serial sections were cut and placed on poly-D-lysine coated slides. Two additional animals in the β/A4 only and the β/A4 & HSPG groups were processed for electron microscopy as described (10).
Detection of infused macromolecules was monitored using two polyclonal antibodies against synthetic β/A4 (either against β/A4 1-28 or 1-40) (13), and two monoclonal antibodies recognizing either HS GAGs (HK-249) (14) or the core protein of perlecan (HK-102) (15). Additionally, two polyclonal antibodies recognizing the core protein of perlecan (17) assessed effects of infused macromolecules (16) on endogenous brain HSPGs. Detection of other AD-like markers included Alz-50 antibody immunostaining (18), and silver staining by the modified Bielschowsky method (19). Possible inflammation-associated amyloid protein involvement was monitored by AA amyloid protein immunostaining (20). The presence of other cell types such as astrocytes was detected by immunostaining with a polyclonal antibody to glial fibrillary acidic protein (GFAP) (1:10,000 dilution; Dako), whereas microglia/macrophage infiltration was detected using a rat monoclonal antibody known as ED1 (1:2500 dilution; Serotec). For all immunostaining, negative controls consisted of using Tris-buffered saline (TBS) instead of the primary antibody, and/or preabsorption experiments using the primary antibody in the presence of excess antigen. In order to quantify possible staining and/or immunostaining differences between the various infusion groups, slides were scored blindly by two independent investigators as described (21) (Table 1; see FIG. 35).
7. Rats were anesthetized with pentobarbital (50 mg/kg) and a 27 gauge steel cannula was stereotactically implanted into the hippocampus using bregma as reference point (AP −4.8; ML 3.5; DV 4), and secured to the skull by machine screws and dental acrylic. The cannula was connected via a 15 cm coil of vinyl tubing to a model 2002 osmotic minipump (Alzet Inc.) placed subcutaneously beneath the shoulder blades. […]

[7] = biological target: T5, BAP (residues 1-28) (Homo sapiens, UniProt P05067); assay: Affinity column chromatography of labeled proteoglycans on BAP (1-28) Affi-gel 10 column; assay type: binding; details: after heparitinase/heparinase digestion
T5 construct: residues 1-28 of BAP or residues 597-624 of BAPP; purchased Bachem Inc., Torrance, Calif; host or cells: synthetic peptide
Protocol: Approximately 500,000 dpm of ^35S-sulfate labeled PGs isolated from the culture media of ECs were applied to Affi-gel 10 affinity columns containing approximately 0.45 mg of 1) residues 1-28 of BAP, 2) residues 410-429, a region of BAPP present in the extracellular domain, or 3) bovine serum albumin. The labeled PGs were left on the column for 1 hour, after which non-bound radiolabelled PGs were eluted with 25 ml (50 0.5 ml fractions) of TBS+0.1% TX-100 and collected on a fraction collector. Bound PGs were then eluted from the column with 15 mls of 4M MgCl2 in TBS+0.1% TX-100.
0.5 mg or 1.0 mg of ligands consisting of 1) BAP (1-28) (Bachem Inc., Torrance, Calif.), 2) a peptide corresponding to residues 410-429 of the BAPP (gift of Dr. Dennis Selkoe, Boston, U.S.A.) or 3) bovine serum albumin (BSA fraction V, Boehringer, Mannheim Biochemical) were dissolved initially in 400 μl of double distilled water to which was added an equal volume of 0.2 M HEPES buffer (pH 7.5) containing 160 mM calcium chloride. The ligand solutions were added to 0.8-1.0 ml of Affi-gel 10 (Biorad, Richmond, Calif.) and coupling was allowed to proceed for 4 hours at 4° C., after which 1/10 volume of IM ethanolamine (pH 8.0) was added and incubation continued for an additional 1-2 hours to block remaining unreacted ester groups. Gel coupled ligand was then transferred to Biorad Econo-columns and washed with TBS in 0.1% Triton-X 100. To assess the amount of bound ligand, soluble (nonbound) protein remaining in the wash buffer was assayed. The affinity columns coupled approximately 90% of ligand initially applied (i.e. 0.45 mg or 0.90 mg).
^35S-sulfate labeled PGs isolated from the culture media (360,000 dpm) of ECs and SMCs were applied to Affi-gel 10 columns containing 1) BAP (residues 1-28), 2) BAPP (residues 410-429) or 3) Bovine serum albumin. The labeled PGs were allowed to interact with the affinity gel for 1 hour (preliminary experiments indicated maximum binding efficiency at 1 hour) and non-bound radiolabelled PGs were eluted with 25 ml of TBS+0.1% Triton X-100 (TBS-TX 100). Bound PGs were eluted with either a single-step gradient using 15 mls of 4M MgCl2 in TBS-TX 100 or a linear gradient of 0 to 4M MgCl2 in TBS-TX 100. In some experiments, columns were further eluted with 15 ml of 8M urea in 50 mM Tris-HCl (pH 7.5), with 0.5% Triton X-100 and 3M NaCl. The radioactivity per fraction was determined by scintillation counting. Most experiments were repeated a minimum of three times. Recoveries of applied radioactivity from the affinity columns ranged from 80-95%.

[8] = biological target: fibronectin (Homo sapiens, UniProt P02751); details: via the core protein; cited from earlier work
[9] = test system: HSPGs in AA amyloidotic mouse spleen; assay: In situ binding of BAP (1-28) to AA amyloidotic tissue sections
Description: Six micron sections of paraffin-embedded AA amyloidotic spleen and liver (gift of Dr. Robert Kisilevsky, Kingston, Canada) were used for the in situ binding studies. AA amyloid was induced in CBA/J female mice (6-8 weeks old) using amyloid enhancing factor and silver nitrate, as previously described (Axelrad et al., 1982; Snow and Kisilevsky, 1985).
Immunostaining of tissue sections was accomplished using the avidin-biotin-immunoperoxidase method, employing the appropriate biotin-labeled secondary antibodies, followed by incubation with avidin-conjugated horseradish peroxidase complex (Vector Labs, Burlingame, Calif.). Peroxidase activity was produced by treatment with 3,3-diaminobenzidine as previously described (Snow et al., 1988a). For immunocytochemical staining, the primary antibody was used initially through a series of dilutions to obtain the best specificity with the least background staining. Only results using the optimal dilutions of primary antibody are reported.
Paraffin sections of mouse AA amyloidotic liver or spleen (obtained 4 days after initial AEF+ silver nitrate induction) were treated overnight at 4° C. with a 0.3 mg/ml or 0.5 mg/ml solution of a peptide corresponding to the extracellular domain of BAP (residues 1-28 of BAP or residues 597-624 of BAPP) (Bachem Inc., Torrance, Calif.) in Tris-buffered saline (TBS). After 18 hours, non-bound BAP was removed by extensive washing in 4 changes of TBS. Bound-BAP was then detected by immunostaining tissue sections with either of two BAP polyclonal antibodies as described above. […] These treatments included: 1) 0.50 units/ml of chondroitin ABC lyase (Seikagaku Kogyo Co. Ltd., through ICN Biomedicals) in 0.1 M enriched Tris-acetate buffer (pH 8.0) at 37° C. for 6 hours (Saitoh et al., 1968), 2) a solution of 20% nitrous acid: 33% acetic acid (1:1, volume/volume) incubated at room temperature for 6 hours (Snow et al., 1987) and 3) 10 units/ml of heparinase I and heparitinase I (Sigma, St. Louis, Mo.) in 0.20 M Tris-HCl buffer (pH 7.0) with 20 mM calcium acetate added, at 37° C. for 6 hours. […]

basic fibroblast growth factor, sequence (P09038 143-288, species assumed): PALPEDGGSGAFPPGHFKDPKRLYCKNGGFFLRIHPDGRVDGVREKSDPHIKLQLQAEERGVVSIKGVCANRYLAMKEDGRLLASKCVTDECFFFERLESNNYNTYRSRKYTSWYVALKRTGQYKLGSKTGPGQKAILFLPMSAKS
fibronectin, sequence (P02751 32-2477, species assumed): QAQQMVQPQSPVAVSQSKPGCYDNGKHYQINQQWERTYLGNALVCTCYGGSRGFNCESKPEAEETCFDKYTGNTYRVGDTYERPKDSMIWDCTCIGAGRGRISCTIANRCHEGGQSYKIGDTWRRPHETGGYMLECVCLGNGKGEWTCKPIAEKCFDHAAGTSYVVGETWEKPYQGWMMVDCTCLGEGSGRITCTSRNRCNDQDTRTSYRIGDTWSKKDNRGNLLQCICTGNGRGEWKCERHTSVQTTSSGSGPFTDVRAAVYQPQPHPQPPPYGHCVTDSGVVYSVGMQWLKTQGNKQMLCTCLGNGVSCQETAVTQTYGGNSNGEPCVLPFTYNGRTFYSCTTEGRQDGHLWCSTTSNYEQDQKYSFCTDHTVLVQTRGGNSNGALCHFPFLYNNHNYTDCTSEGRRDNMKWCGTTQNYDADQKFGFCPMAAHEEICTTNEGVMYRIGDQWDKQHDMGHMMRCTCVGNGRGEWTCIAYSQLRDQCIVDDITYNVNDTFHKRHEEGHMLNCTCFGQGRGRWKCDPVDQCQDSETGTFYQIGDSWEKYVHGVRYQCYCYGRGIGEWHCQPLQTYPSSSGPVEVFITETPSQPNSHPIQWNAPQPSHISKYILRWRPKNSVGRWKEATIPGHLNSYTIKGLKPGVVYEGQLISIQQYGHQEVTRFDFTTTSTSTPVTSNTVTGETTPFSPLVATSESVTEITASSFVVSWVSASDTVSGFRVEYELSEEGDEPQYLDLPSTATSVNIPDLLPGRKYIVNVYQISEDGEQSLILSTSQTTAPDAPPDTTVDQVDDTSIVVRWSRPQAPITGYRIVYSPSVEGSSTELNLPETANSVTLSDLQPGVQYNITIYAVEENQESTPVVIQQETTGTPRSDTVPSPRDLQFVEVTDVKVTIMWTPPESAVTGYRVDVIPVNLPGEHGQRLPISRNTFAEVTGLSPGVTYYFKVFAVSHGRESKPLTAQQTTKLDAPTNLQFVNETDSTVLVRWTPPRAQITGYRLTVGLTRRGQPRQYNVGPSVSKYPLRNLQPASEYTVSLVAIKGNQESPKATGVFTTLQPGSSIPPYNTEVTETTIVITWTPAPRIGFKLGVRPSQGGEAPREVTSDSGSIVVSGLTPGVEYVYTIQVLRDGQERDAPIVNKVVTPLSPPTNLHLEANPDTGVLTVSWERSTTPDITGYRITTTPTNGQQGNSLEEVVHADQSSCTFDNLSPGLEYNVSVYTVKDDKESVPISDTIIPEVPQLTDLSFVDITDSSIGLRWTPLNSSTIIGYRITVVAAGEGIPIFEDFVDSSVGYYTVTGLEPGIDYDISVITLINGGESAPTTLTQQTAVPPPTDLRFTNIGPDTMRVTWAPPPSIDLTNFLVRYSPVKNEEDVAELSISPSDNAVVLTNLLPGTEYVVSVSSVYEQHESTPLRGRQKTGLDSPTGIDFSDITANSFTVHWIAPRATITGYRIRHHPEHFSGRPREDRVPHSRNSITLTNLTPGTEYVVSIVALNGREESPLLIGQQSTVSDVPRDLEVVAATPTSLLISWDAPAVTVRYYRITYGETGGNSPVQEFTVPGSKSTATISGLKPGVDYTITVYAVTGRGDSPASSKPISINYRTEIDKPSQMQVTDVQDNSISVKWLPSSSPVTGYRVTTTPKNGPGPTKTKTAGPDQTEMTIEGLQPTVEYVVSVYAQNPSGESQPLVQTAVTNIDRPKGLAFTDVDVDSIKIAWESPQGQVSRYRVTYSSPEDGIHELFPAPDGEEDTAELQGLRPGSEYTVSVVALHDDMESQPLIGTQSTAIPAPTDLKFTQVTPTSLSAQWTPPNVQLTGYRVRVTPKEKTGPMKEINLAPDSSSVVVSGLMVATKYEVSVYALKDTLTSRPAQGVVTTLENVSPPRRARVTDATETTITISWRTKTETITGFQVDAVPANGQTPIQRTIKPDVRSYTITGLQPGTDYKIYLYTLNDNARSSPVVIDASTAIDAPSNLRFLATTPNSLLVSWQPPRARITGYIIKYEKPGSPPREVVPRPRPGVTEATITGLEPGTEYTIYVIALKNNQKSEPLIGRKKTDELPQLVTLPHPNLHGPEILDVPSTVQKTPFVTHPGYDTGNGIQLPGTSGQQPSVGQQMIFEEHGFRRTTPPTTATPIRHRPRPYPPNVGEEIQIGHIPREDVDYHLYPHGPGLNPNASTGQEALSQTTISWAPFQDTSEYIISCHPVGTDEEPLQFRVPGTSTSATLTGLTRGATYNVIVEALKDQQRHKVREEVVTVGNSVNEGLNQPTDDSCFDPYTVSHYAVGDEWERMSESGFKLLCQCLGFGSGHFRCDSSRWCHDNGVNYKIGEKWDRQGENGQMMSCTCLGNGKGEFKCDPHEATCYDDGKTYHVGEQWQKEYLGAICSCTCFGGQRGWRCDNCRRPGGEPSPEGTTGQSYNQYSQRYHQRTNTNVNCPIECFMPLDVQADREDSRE

## EHS basement-membrane HSPG: basement membrane derived heparan sulfate proteoglycan (perlecan) from mouse Engelbreth-Holm-Swarm sarcoma, Mr approximately 700,000
[1]; listed as EHS HSPG
  inhibition of binding of 125I-labeled HSPGs to the BAP (in words): more effective competitor
[1]; listed as isolated basement membrane HSPG
  inhibition of binding of 125I-labeled HSPGs to the BAP (in words): strongly inhibited
[1]
  IC50: < 1000 nM
[2]
  Kd: 10 nM
[3]
  Kd: 30000 nM
[4]
  Kd: 9 nM
[5]
  Kd: 0.9 nM
[6]; 1 week infusion
  Alz-50 immunostaining adjacent to infusion site: Lack

## chondroitin-6-sulfate [reference compound]
[1]
  inhibition of binding of 125I-labeled HSPGs to the BAP (in words): not
[1]; at all concentrations except 100 uM
  competition for binding of 125I-labeled HSPG to BAP: unable to compete

## heparin [reference compound]
[1]
  IC50: 10000 nM

## heparitinase-digested ^125I-labeled HSPGs: 125I-labeled HSPG digested with a heparitinase/heparinase mixture (core protein)
[7]
  HSPGs still able to bind to the BAP column in comparison to undigested controls: 61%

## high Mr HSPG of human lung fibroblasts: high Mr HSPG of human lung fibroblasts (Heremans et al. 1990)
[8]
  Kd: 2 nM

## synthetic BAP (residues 1-28): peptide corresponding to the extracellular domain of BAP (residues 1-28 of BAP or 597-624 of BAPP), Bachem
[9]; sections pretreated overnight at 4° C. with peptide
  BAP immunoreactivity at sites of HSPG accumulation after peptide pretreatment: strong positive immunoreactivity
[9]; sections pretreated with acetic acid or chondroitin ABC lyase
  change in BAP immunostaining: little to no decrease
[9]; sections pretreated with nitrous acid or heparitinase/heparinase
  change in BAP immunoreactivity: some loss

## β/A4 (1-40): synthetic β/A4 residues 1-40; Bachem California Inc.
[6]; 1-week infusion groups
  HSPG core protein immunostaining score versus groups where HSPG was part of the infusate: not significantly different
  scoring of congo red staining: significant increase
  scoring of thioflavin S fluorescence: significant increase
[6]; 1 week continuous infusion into hippocampus
  animals demonstrating deposition of congophilic amyloid material in brain: 4 of 6
[6]; 1 week, HSPG not part of the infusate
  animals with (endogenous) HSPG immunostaining: four
